How the values were obtained:
[1] = tested on: EN1 and LMX1A; test: qRT-PCR analysis of ventral midbrain markers EN1 and LMX1A in imDAP cells; assay type: cell-based, human; conditions: 3-step protocol
Experimental: (§1) (1) qRT-PCR • 1. For qRT-PCR analysis of mRNA gene expression, RNA should be harvested from at least 2×10^6 cells. • 2. Harvest cells, add 350 μl of buffer RLT+1% (vol/vol) β-mercaptoethanol to the well, transfer the lysate to a 1.5 ml tube, and put it immediately on ice. • 3. Perform RNA extraction using the Tiangen Kit (DP430) and following the manufacturer's protocol ‘Purification of total RNA from animal and human cells’. • 4. When the RNA extraction was completed, determine the RNA concentration using a Nanodrop instrument. • 5. Perform the first-strand cDNA synthesis reaction with 1 μg of RNA using the HiScript™ II Q RT SuperMIX for qPCR (+gDNA wiper) Kit (Vazyme, #R223-01) for RT-qPCR. Follow the manufacturer's ‘First-Strand cDNA Synthesis’ protocol. This reaction would yield a 20 μl product. • 6. Dilute 10 μl cDNA product in 80 μl of nuclease-free water. • 7. Pipette the diluted cDNA product (1 μl), Sybr green master mix (5 μl, Transgen, #AQ131) and 0.95 μM reverse/forward primer mix (4 μl) into a 384-well PCR plate in triplicate, either manually or using an automated pipetting robot. The complete primer panel included the target genes and the housekeeping gene (RPL13A). In the analysis, the expression level of gene was determined by using a sample of undifferentiated hPSCs as control. • 8. Analyze the samples by running a quantitative PCR on the LightCycler 480 instrument using a 40x cycle two-step protocol with a 60° C., 60 sec annealing/elongation step and a 95° C., 30 sec denaturation step. The average CT value from the three technical replicates was used for calculation of relative gene expression using the ΔΔCT method. […]
On Day-1, EB formation (Stage 1) was carried out by dissociating hiPSCs (Nuwacell) to form a single-cell suspension and resuspending it in Epic medium (Nuwacell, #RP01001) containing 10 μM Blebbistatin (MCE, #HY-13441) in T25 flasks on a belly dancer and culturing the cells overnight. […] On Day 16 (at the end of S2-2), imDAP cells were collected and analyzed by qRT-PCR assay for ventral midbrain marker EN1 and LMX1A. […]

[2] = tested on: PAX6; test: qRT-PCR analysis of dorsal midbrain marker PAX6 in imDAP cells; assay type: cell-based, human; conditions: exposure to Boost-CHIR 7.5 μM from Day 4 compared to from Day 5
Experimental: as §1, with “Pipette the diluted cDNA product (1 μl), Sybr green master mix (5 μl, Transgen, #AQ131) and 0.95 μM reverse/forward primer mix (4 μl) into a 384-well PCR plate in triplicate, either manually or using an automated pipetting robot. The complete primer panel included the target genes and the housekeeping gene (RPL13A).” left out, “step.” for “step. The average CT value from the three technical replicates was used for calculation of relative gene expression using the ΔΔCT method.”

For Cc1cnc(-c2cnc(NCCNc3ccc(C#N)cn3)nc2-c2ccc(Cl)cc2Cl)[nH]1 [CHIR, CHIR99021], which “expression levels of EN1 and LMX1A” value ([1]; CHIR 5 μM and 7.5 μM compared to 10 μM) is on record?
Its value is “better results”.

What about the “expression levels of EN1 and LMX1A” value ([1]; CHIR 7.5 μM Stage 2-2 from Day 3 to Day 6 versus Day 3 to Day 10) of the same molecule?
Its value is “comparable”.

What about the “expression levels of EN1 and LMX1A” value ([1]; high CHIR 5, 7.5 or 10 μM Day 3 to Day 10, relative to the 2-step protocol) of the same molecule?
Its value is “increased”.

What about the “expression of PAX6” value [2] of the same molecule?
The value was “lower”.

Reference: patent US20250136934A1, “PRODUCTION OF INDUCED MIDBRAIN DOPAMINERGIC PROGENITOR CELLS FROM PLURIPOTENT STEM CELLS” (NUWACELL BIOTECHNOLOGIES CO., LTD., priority 2023, published 2025)
